Source: US7834049B2, “Integrin expression inhibitor” (Eisai R&D Management Co., Ltd., priority 2000, dated 2010)
≈ marks a conversion by molar mass, not a printed value.

Tests used:
integrin α2 [1] = assay: Integrin expression inhibitory action on HUVEC (flow cytometer); assay type: cell-based, human; conditions: 0.05 μg/ml, 48 hours
Method: (§1) Human umbilical venous endothelial cells (HUVEC) of 5×10^5 in number were seeded in a 75 cm^2 cell culture bottle and then cultured using an EGM medium (Sanko Junyaku) at 37° C. in a CO2 incubator. Then, after 3 hours, the EGM medium was exchanged for the same medium including compound A, which was then cultured for further 48 hours. Next, the cells were collected and washed with a bovine serum albumin-containing phosphate buffer solution and the above buffer solution containing various anti-human integrin mouse antibodies was added to the cells and the solution containing cells was allowed to stand at 4° C. for 30 minutes. After washed, FITC connective anti-mouse IgG antibody was added to the cells, which was then allowed to stand for 30 minutes and washed again. Next, the cells were fixed and the amount of antibody connected per cell was measured as the amount of FITC by using a flow cytometer.

integrin α3 [2] = assay: as above; assay type: cell-based, human; conditions: 0.05 μg/ml, 48 hours
Method: as §1

integrin α5 [3] = assay: as above; assay type: cell-based, human; conditions: 0.05 μg/ml, 48 hours
Method: as §1

integrin α6 [4] = assay: as above; assay type: cell-based, human; conditions: 0.05 μg/ml, 48 hours
Method: as §1

integrin αv = assay: as above; assay type: cell-based, human; conditions: 0.05 μg/ml, 48 hours
Method: as §1

integrin β1 [5] = assay: as above; assay type: cell-based, human; conditions: 0.05 μg/ml, 48 hours
Method: as §1

integrin β3 = assay: as above; assay type: cell-based, human; conditions: 0.05 μg/ml, 48 hours
Method: as §1

integrin β5 = assay: as above; assay type: cell-based, human; conditions: 0.05 μg/ml, 48 hours
Method: as §1

integrin α2 [6] = assay: Integrin expression inhibitory action on human colonic cancer cell line HCT116-C9; assay type: cell-based
integrin α3 [7] = assay: as above; assay type: cell-based
integrin α5 [8] = assay: as above; assay type: cell-based
integrin α6 [9] = assay: as above; assay type: cell-based
Method: [Worded in the source for another cell line; this cell line is reported under the same test.] as §1
(§2) The integrin expression inhibitory action of the compound A on the above cells was examined in the same manner as in Example 1.

integrin β1 [10] = assay: as above; assay type: cell-based
integrin β4 = assay: as above; assay type: cell-based
integrin α2 [11] = assay: Integrin expression inhibitory action on human normal fibroblast cell line WI38; assay type: cell-based; conditions: WI38, higher concentration than in Examples 1 and 2 (0.5 μg/ml and 5 μg/ml), 48 hours
Method: [Worded in the source for another cell line; this cell line is reported under the same test.] as §1, §2

integrin α5 [12] = assay: as above; assay type: cell-based; conditions: WI38, higher concentration than in Examples 1 and 2 (0.5 μg/ml and 5 μg/ml), 48 hours
Method: [Worded in the source for another cell line; this cell line is reported under the same test.] as §1, §2

integrin α6 [13] = assay: as above; assay type: cell-based; conditions: WI38, higher concentration than in Examples 1 and 2 (0.5 μg/ml and 5 μg/ml), 48 hours
Method: [Worded in the source for another cell line; this cell line is reported under the same test.] as §1, §2

integrin β1 [14] = assay: as above; assay type: cell-based; conditions: WI38, higher concentration than in Examples 1 and 2 (0.5 μg/ml and 5 μg/ml), 48 hours
Method: [Worded in the source for another cell line; this cell line is reported under the same test.] as §1, §2

integrin α3 [15] = assay: as above; assay type: cell-based; conditions: WI38, higher concentration than in Examples 1 and 2 (0.5 μg/ml and 5 μg/ml), 48 hours
integrin α4 = assay: as above; assay type: cell-based; conditions: WI38, higher concentration than in Examples 1 and 2 (0.5 μg/ml and 5 μg/ml), 48 hours
integrin α1 = assay: as above; assay type: cell-based; conditions: WI38, higher concentration than in Examples 1 and 2 (0.5 μg/ml and 5 μg/ml), 48 hours
[16] = system: Human umbilical venous endothelial cells (HUVEC); assay: Antiangiogenic effect-2: HUVEC tube formation between collagen layers; assay type: cell-based; conditions: 96 h, HUVEC in type I collagen, 10 ng/ml EGF and 20 ng/ml bFGF, cultured 4 days, read-out: IC50, area of the formed tube
Method: 0.4 ml of type I collagen was added to a 24-well plate and solidified. Human umbilical venous endothelial cells (HUVEC) of 8×10^4 in number were seeded on the collagen and cultured overnight by using endothelial cells culture solution (Gibco BRL) containing 10 ng/ml EGF and 20 ng/ml bFGF. Next, the supernatant was removed and then 0.4 ml of the same collagen was overlaid. A culture solution containing 1.5 ml of the compound A was further added and the cells were cultured for 4 days. Thereafter, the area of the formed tube was measured quantitatively by image analysis.

[17] = system: human colic cancer cell strains (WiDr) chamber in C57 Black female mouse; assay: Antiangiogenic effect-3 (in vivo): mouse air capsule method with WiDr chamber; conditions: dose of 50 mg/kg, orally administered, once a day; measured 4 days after chamber transplantation
Method: The above activity was evaluated using a method obtained by improving a mouse air capsule method (Sakamoto et al., Cancer Res., 1, 55-57, 1986) in part. Specifically, a millipore ring (Nippon Millipore) was sealed using a 0.22 μm membrane filter (HAWPO, Nippon Millipore) to form a chamber. 1×10^7 human colic cancer cell strains (WiDr) which were suspended in a phosphoric acid buffer solution were sealed into the chamber. Next, an air capsule was formed on a subcutaneous site of the backside of a C57 Black female mouse of 6 to 8 weeks age and the foregoing chamber was transplanted to the air capsule. The compound A was orally administered after about 6 hours passed after the transplantation was finished and afterwards administered in sequence once a day for 3 days. The erythrocytes of the mouse that was labeled with ^51Cr was injected from the tail vein 4 days after the chamber was transplanted. […] Then, a value obtained by subtracting the amount of blood measured in the case of the chamber including no cancer cell from the above amount of blood was determined as the amount of angiogenesis. […] If the results are evaluated by T/C (%): the amount of angiogenesis of the compound-administered groups/the amount of angiogenesis of the vehicle-administered groups×100, the compound A had such an effect as T/C=53% at a dose of 50 mg/kg.

[18] = HCT116-C9, 0.05 μg/ml, 48 hours

SMILES: Cc1ccc(NS(=O)(=O)c2cccc(C#N)c2)c2[nH]cc(C#N)c12 [compound A, N-(3-Cyano-4-methyl-1H-indole-7-yl)-3-cyanobenzenesulfonamide]
- expression of integrin α2 on the surface of the cell (integrin α2 [1]): inhibited
- expression of integrin α3 on the surface of the cell (integrin α3 [2]): inhibited
- expression of integrin α5 on the surface of the cell (integrin α5 [3]): inhibited
- expression of integrin α6 on the surface of the cell (integrin α6 [4]): inhibited
- expression of integrin αv on the surface of the cell (integrin αv): inhibited
- expression of integrin β1 on the surface of the cell (integrin β1 [5]): inhibited
- expression of integrin β3 on the surface of the cell (integrin β3): inhibited
- expression of integrin β5 on the surface of the cell (integrin β5): inhibited
- expression of integrin α2 (integrin α2 [6]; [18]): inhibited
- expression of integrin α2 (integrin α2 [6]; HCT116-C9, 0.5 μg/ml): inhibited
- expression of integrin α3 (integrin α3 [7]; [18]): inhibited
- expression of integrin α3 (integrin α3 [7]; HCT116-C9, 0.5 μg/ml): inhibited
- expression of integrin α5 (integrin α5 [8]; [18]): inhibited
- expression of integrin α5 (integrin α5 [8]; HCT116-C9, 0.5 μg/ml): inhibited
- expression of integrin α6 (integrin α6 [9]; [18]): inhibited
- expression of integrin α6 (integrin α6 [9]; HCT116-C9, 0.5 μg/ml): inhibited
- expression of integrin β1 (integrin β1 [10]; [18]): inhibited
- expression of integrin β1 (integrin β1 [10]; HCT116-C9, 0.5 μg/ml): inhibited
- expression of integrin β4 (integrin β4; [18]): inhibited
- expression of integrin β4 (integrin β4; HCT116-C9, 0.5 μg/ml): inhibited
- expression of integrin α2 (integrin α2 [11]): slightly inhibited
- expression of integrin α5 (integrin α5 [12]): no influence
- expression of integrin α6 (integrin α6 [13]): no influence
- expression of integrin β1 (integrin β1 [14]): no influence
- expression of integrin α3 (integrin α3 [15]): slightly inhibited
- expression of integrin α4 (integrin α4): slightly inhibited
- expression of integrin α1 (integrin α1): no influence
- IC50 [16]: 0.12 µg/mL (≈ 0.357 µM)
- T/C (%): amount of angiogenesis of compound-administered groups / vehicle-administered groups ×100 [17]: 53%
